Source: article PMC11882969 (Nature Communications, 2025)
Several values for one entry are separate records, joined by “and”; a condition that tells them apart may be missing. Identical values can stand only once.

Target: hCB1 (Homo sapiens, UniProt P21554)
Test: bioSensAll ebBRET signaling profiling, hCB1
Type: cell-based
Parameters: host or cells: HEK293SL cells, transient PEI transfection
Settings: for Gi1 hCB1 response: Gi1 biosensor; for Gi1 hCB1 / GoB hCB1: single replicate values, FigS6a

Chain of hCB1 (P21554 whole entry): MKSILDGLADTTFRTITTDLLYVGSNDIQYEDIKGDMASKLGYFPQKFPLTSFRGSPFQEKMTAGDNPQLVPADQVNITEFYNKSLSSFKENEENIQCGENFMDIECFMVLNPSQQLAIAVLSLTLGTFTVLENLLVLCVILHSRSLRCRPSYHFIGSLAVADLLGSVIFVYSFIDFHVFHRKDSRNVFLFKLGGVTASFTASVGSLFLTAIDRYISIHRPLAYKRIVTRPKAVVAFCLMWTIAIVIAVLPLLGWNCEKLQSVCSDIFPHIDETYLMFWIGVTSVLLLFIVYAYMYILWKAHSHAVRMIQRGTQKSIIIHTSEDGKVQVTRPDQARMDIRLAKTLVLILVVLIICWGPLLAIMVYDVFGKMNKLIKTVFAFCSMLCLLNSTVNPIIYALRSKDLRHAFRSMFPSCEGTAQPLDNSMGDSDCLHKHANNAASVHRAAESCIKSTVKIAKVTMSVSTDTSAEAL

Cc1cc(C(=O)N2CC3(CCC3)[C@@H]2[C@H]2CCCO2)nn1-c1cccc(C(F)(F)F)c1 (single isomer, unassigned) [compound 430]
Gi1 hCB1 response (Log [Compound] (M) -4.22186): 4.286 | Gi1 hCB1 response (Log [Compound] (M) -4.63927): -17.6928 | Gi1 hCB1 response (Log [Compound] (M) -5.05788): -21.811 | Gi1 hCB1 response (Log [Compound] (M) -5.47381): -11.1127 | Gi1 hCB1 response (Log [Compound] (M) -5.89285): -12.5003 | Gi1 hCB1 response (Log [Compound] (M) -6.31878): -6.681 | Gi1 hCB1 response (Log [Compound] (M) -6.72585): 6.524 | Gi1 hCB1 response (Log [Compound] (M) -7.14267): -2.6525 | Gi1 hCB1 response (Log [Compound] (M) -7.55284): 0.7047 | Gi1 hCB1 response (Log [Compound] (M) -8): -4.174 | Gi1 hCB1 response (Log [Compound] (M) -8.22186): 0.4361 | Gi1 hCB1 response (Log [Compound] (M) -8.39794): -4.779 | Gi1 hCB1 response (Log [Compound] (M) -8.68787): 4.89 | Gi1 hCB1 response (Log [Compound] (M) -9.15521): -2.764 | Gi1 hCB1 response (Log [Compound] (M) -9.61989): -2.876 | Gi1 hCB1 response (Log [Compound] (M) -10.0969): -2.115 | Gi1 hCB1 response (Log [Compound] (M) -10.5529): 4.689 | Gi1 hCB1 response (Log [Compound] (M) -11.0177): -4.667 | Gi1 hCB1 response (Log [Compound] (M) -11.4949): -5.853 | Gi1 hCB1 response (Log [Compound] (M) -11.9208): -0.9963 | Gi1 hCB1 response (Log [Compound] (M) -12.3979): 1.4433 | Gi1 hCB1 response (Log [Compound] (M) -12.8861): -2.25 | Gi1 hCB1 response (Log [Compound] (M) -13, individual replicate values): 4.375 and -8.248 | Gi1 hCB1 (Log [Compound] (M) -4.22186): 3.789 | GoB hCB1 (Log [Compound] (M) -4.22186): 6.14 | Gi1 hCB1 (Log [Compound] (M) -4.63927): -1.761 | GoB hCB1 (Log [Compound] (M) -4.63927): -3.176 | Gi1 hCB1 (Log [Compound] (M) -5.05788): -2.054 | GoB hCB1 (Log [Compound] (M) -5.05788): -0.4061 | Gi1 hCB1 (Log [Compound] (M) -5.47381): 0.08902 | GoB hCB1 (Log [Compound] (M) -5.47381): 1.896 | Gi1 hCB1 (Log [Compound] (M) -5.89285): 0.7519 | GoB hCB1 (Log [Compound] (M) -5.89285): 0.547 | Gi1 hCB1 (Log [Compound] (M) -6.31878): 0.1815 | GoB hCB1 (Log [Compound] (M) -6.31878): 1.86 | Gi1 hCB1 (Log [Compound] (M) -6.72585): 1.1836 | GoB hCB1 (Log [Compound] (M) -6.72585): 4.665 | Gi1 hCB1 (Log [Compound] (M) -7.14267): 0.9678 | GoB hCB1 (Log [Compound] (M) -7.14267): 2.363 | Gi1 hCB1 (Log [Compound] (M) -7.55284): 0.274 | GoB hCB1 (Log [Compound] (M) -7.55284): 5.3306 | Gi1 hCB1 (Log [Compound] (M) -8): 0.5207 | GoB hCB1 (Log [Compound] (M) -8): 3.155 | Gi1 hCB1 (Log [Compound] (M) -8.22186): 0.08902 | GoB hCB1 (Log [Compound] (M) -8.22186): -0.8557 | Gi1 hCB1 (Log [Compound] (M) -8.39794): 1.23 | GoB hCB1 (Log [Compound] (M) -8.39794): 3.334 | Gi1 hCB1 (Log [Compound] (M) -8.68787): 1.214 | GoB hCB1 (Log [Compound] (M) -8.68787): -1.521 | Gi1 hCB1 (Log [Compound] (M) -9.15521): 1.245 | GoB hCB1 (Log [Compound] (M) -9.15521): -0.6579 | Gi1 hCB1 (Log [Compound] (M) -9.61989): 2.463 | GoB hCB1 (Log [Compound] (M) -9.61989): 0.4211 | Gi1 hCB1 (Log [Compound] (M) -10.0969): 1.338 | GoB hCB1 (Log [Compound] (M) -10.0969): -1.125 | Gi1 hCB1 (Log [Compound] (M) -10.5529): 0.1353 | GoB hCB1 (Log [Compound] (M) -10.5529): -0.9456 | Gi1 hCB1 (Log [Compound] (M) -11.0177): 0.5053 | GoB hCB1 (Log [Compound] (M) -11.0177): 3.37 | Gi1 hCB1 (Log [Compound] (M) -11.4949): 0.5207 | GoB hCB1 (Log [Compound] (M) -11.4949): 5.385 | Gi1 hCB1 (Log [Compound] (M) -11.9208): 1.523 | GoB hCB1 (Log [Compound] (M) -11.9208): 2.741 | Gi1 hCB1 (Log [Compound] (M) -12.3979): 0.7674 | GoB hCB1 (Log [Compound] (M) -12.3979): 3.263 | Gi1 hCB1 (Log [Compound] (M) -12.8861): 0.2586 | GoB hCB1 (Log [Compound] (M) -12.8861): 4.072 | Gi1 hCB1 (Log [Compound] (M) -13): 1.954 and 3.465 | GoB hCB1 (Log [Compound] (M) -13): 3.838 and 3.119
